Where no end group is shown, it is not given here.
Columns and labels:
[1] = target: type IV procollagenase (Homo sapiens, UniProt P08253); details: 10 mM EDTA; 1 mM pAPMA, 37° C.
Protocol: 20 μl aliquots of A2058 melanoma cell conditioned media were activated in the presence of 1.0 mM pAPMA for the indicated times (min). The reactions were stopped by the addition of EDTA to 10 mM and the samples were electrophoresed on a 9% acrylamide gel with or without gelatin. The gelatin containing gels were developed as zymograms after electrophoresis.
Stock solutions of 0.01M p-APMA in 0.05N NaOH were prepared fresh daily. Proenzyme samples were incubated with a final concentration 0.5 or 1.0 mM p-APMA for varying times (0-16 hours) at 37° C. Following incubation, the samples were analyzed directly by NaDodSO4 -PAGE on 9% acrylamide gels containing 0.1% gelatin (gelatin zymogram). Alternatively, the samples were run on 9% NaDodSO4 -PAGE and electroblotted onto Immobilon P membranes (Millipore).

[2] = target: T1, type IV collagenase (Homo sapiens, UniProt P08253); assay: soluble type IV collagenase assay (3H-type IV collagen degradation); format: biochemical; details: peptide 0.1 mM; purified activated type IV collagenase, pepsinized type IV collagen (FIG. 11)
T1 construct: endogenous in cells; host or cells: human A2058 melanoma cells
T1 sequence (P08253 110-660): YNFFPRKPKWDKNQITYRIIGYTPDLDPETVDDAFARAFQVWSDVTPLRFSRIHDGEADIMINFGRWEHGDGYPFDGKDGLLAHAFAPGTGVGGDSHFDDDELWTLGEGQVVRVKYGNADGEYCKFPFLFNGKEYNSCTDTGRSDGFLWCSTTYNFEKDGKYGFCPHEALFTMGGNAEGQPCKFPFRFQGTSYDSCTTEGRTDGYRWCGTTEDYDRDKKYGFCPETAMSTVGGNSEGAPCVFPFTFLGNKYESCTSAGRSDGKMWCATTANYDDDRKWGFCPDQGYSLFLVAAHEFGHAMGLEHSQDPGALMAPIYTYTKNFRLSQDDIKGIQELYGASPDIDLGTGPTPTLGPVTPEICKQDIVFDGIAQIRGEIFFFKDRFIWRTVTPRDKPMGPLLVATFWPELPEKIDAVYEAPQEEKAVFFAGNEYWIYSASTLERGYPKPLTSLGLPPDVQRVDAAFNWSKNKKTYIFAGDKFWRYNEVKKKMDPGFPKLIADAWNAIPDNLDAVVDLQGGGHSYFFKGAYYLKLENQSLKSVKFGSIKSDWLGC
Protocol: FIG. 11 illustrates the dose dependent inhibition of purified activated type IV collagenase cleavage of pepsinized type IV collagen by the designated synthetic peptides. Peptide TMRKPRCGNPDVAN at a concentration of 0.1 mM inhibits 80% of the enzyme activity.
The procedure for the collagenase assay of this example utilized the following preparation.
1. Place enzyme sample activator (usually 1 mM pAPMA) and test solution in 1.5 ml Eppendorf tube. Combined volume must equal 60 μl. Add 1× collagenase buffer, if necessary. If necessary, preincubate.
2. Prepare type Iv collagen substrate by diluting stock ^3 H-type IV collagen (NEN #NET-931 lot #2511-018) 1:120 with 1× collagenase buffer. Heat to 55° C. for 10 minutes and cool on ice.
3. Add 5 μl of diluted mH-type IV collagen solution to each assay tube. Vortex to mix and incubate at 28° C. for 4 hours.
4. At the end of the incubation period, add 2 μl of carrier BSA solution and 7 μl of TCATAP solution. Vortex mix and allow to stand on ice for at least 10 minutes.
5. Pellet the precipitate by centrifuging in the microfuge for 10 minutes with the speed set at 6. Orient the tubes when placing them in the microfuge in order that the position of the pellet will be known.
6. Immediately after centrifugation, aspirate 55 μl of the supernatant and place in a scintillation vial. Add 5 ml of scintillation cocktail, shake well and count. […]

Sequence of type IV procollagenase (P08253 30-660 limits assumed): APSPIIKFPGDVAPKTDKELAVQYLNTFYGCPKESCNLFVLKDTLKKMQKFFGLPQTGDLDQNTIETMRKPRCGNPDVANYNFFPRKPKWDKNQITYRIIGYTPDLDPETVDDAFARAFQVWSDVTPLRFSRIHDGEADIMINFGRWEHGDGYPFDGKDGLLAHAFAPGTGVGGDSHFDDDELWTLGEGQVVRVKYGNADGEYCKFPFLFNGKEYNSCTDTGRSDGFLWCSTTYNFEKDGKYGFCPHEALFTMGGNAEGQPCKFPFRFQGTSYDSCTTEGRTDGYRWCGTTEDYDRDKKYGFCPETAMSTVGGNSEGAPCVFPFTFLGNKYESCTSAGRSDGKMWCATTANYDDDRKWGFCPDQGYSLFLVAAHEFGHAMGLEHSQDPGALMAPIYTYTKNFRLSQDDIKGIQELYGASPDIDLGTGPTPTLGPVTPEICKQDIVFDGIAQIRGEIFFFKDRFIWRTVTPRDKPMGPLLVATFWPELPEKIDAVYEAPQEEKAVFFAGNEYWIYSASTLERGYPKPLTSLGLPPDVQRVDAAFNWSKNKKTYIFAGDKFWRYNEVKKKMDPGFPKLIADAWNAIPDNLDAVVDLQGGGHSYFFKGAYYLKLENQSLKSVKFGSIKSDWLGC

Compound	conversion of 70 kDa band to 62 kDa form [1]	inhibition of enzyme activity [2] [%]
O=C(O)CN(CCN(CC(=O)O)CC(=O)O)CC(=O)O [EDTA]	completely inhibited	
TMRKPRCGNPDVAN [Peptide 74, TMRKPRCGNPDVAN]		80
